Values of other authors in patent publication US11472859B2, “Method and composition for treating neuronal hyper-excitabtiity” (The Regents of the University of California, priority 2016, dated 2022).
Entries after “also recorded” stand apart in the source; their conditions may differ.

Columns and labels:
spasticity = settings: for anti-spasticity effect: systemic or spinal administration, clinical (and experimental animal) studies
[1] = system: brain or spinal parenchymal GABA release; settings: after systemic delivery

| SMILES | side effects (spasticity; clinical use, systemic or spinal) | anti-spasticity effect (spasticity) | potentiation of brain or spinal parenchymal GABA release [1] |
| --- | --- | --- | --- |
| NCC(CC(=O)O)c1ccc(Cl)cc1 (stereo not shown) [baclofen] | major side effects such as general sedation and progressive tolerance development; also recorded: unwanted systemic side effects such as sedation | most potent anti-spasticity pharmacological treatment; also recorded: effective in modulating spasticity; also recorded: potent antispasticity effect | – |
| Cc1ccsc1C(=CCCN1CCC[C@@H](C(=O)O)C1)c1sccc1C [tiagabine] | – | only a weak or no anti-spasticity effect | relatively modest potentiation |
